The record followed here is patent US6340677B1, “Method of evaluation of skin conditioning-ameliorating agents and method of producing compositions for topical application to skin” (Pola Chemical Industries, Inc., priority 1997, dated 2002).

In the experiment the test system is mouse photo-aging model. The experiment can be described thus: degree of order of dermis collagen fiber bundle in the mouse photo-aging model (score 0 to 3 from electron microphotographs). The class given is in vivo, hairless mice (Skh: HR-1). Conditions: 0.05% solution in ethanol.

Method: Five groups of hairless mice (Skh: HR-1,female, 8-week-old), each group comprising six mice, were prepared. A part of skin and replica of skin surface morphology were excised from each mouse of one group of them when they were 8 weeks old without the following ultraviolet light irradiation, namely in-the state of before the ultraviolet light irradiation. About the remaining four groups, each mouse was irradiated with ultraviolet light B (Toshiba SE lamp, 60 mJ/cm^2) once per day for 5 days a week and fed up. The irradiation of the ultraviolet light to one group among the four groups described-above was stopped after one week of the initiation of the irradiation and at this time a part of skin and replica of skin surface morphology were excised from each mouse of the group. As the same manner, the irradiation of the ultraviolet light to the another group and to the further another group were stopped after two and five weeks of the initiation of the irradiation and then a part of skin and replica of skin surface morphology were excised from each mouse of the groups respectively. The irradiation of the ultraviolet light to the last group was continued to 10 weeks after initiation of the irradiation to prepare the mouse photo-aging models. Thus the total amount of the ultraviolet light irradiated to the mouse photo-aging models was 3J/cm^2. A part of skin and replica of skin surface morphology were also excised from each mouse photo-aging model obtained above. […] Each of the solution was given in an amount of 0.05 ml once a day for consecutive 8 weeks. After completion of the application, a part of the skin was excised from each mouse to take photographs of its surface morphology under scanning electron microscope. […] Evaluation was carried out using the value calculated by dividing the degree of order of the dermis collagen fiber bundle measured by the above method after the application by that before the application.

Regarding `C[C@@H]1C[C@H]2[C@@H]3CCC4=CC(=O)C=C[C@]4(C)[C@@]3(F)[C@@H](O)C[C@]2(C)[C@@]1(O)C(=O)CO` [dexamethasone], the “average of the scores of the degree of order of dermis collagen fiber bundle” value (0.05 ml once a day for consecutive 8 weeks, five mice, score 0 to 3, 2,500 magnification, before application 0.82) turned out to be 1.71. Further, the “degree of amelioration of skin conditions (average score of treated group / average score of ethanol-applied group)” value (8 weeks, 1.71/0.78) was determined as 2.28. In addition, the “degree of amelioration of skin conditions (score after application / score before application)” value (8 weeks, 1.71/0.82) is reported as 2.09.
